Among the test systems are SK-OV-3; HOP-62; LOX IMVI; TK-10; SF-268; BT-549; K562; U-251; HT-29; MDA-MB-435; HCC 2998; HCT-15; MCF7; Malme-3M; OVCAR-4; KM12; UO-31; RXF 393; OVCAR-5; ACHN.
Assay in all cases: NCI-60 cell line screen, 48 h

Molecules are shown by their SMILES.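 Cultured in 96-well plates, cells were exposed to test compound for 48 hours across five concentrations. GI50 marks 50% less growth.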 Calls of active or inactive are those of the source. Cut-off read from the data, not from the text of the source: active = GI50 up to about 1.1 µM and inactive = higher.

For the compound `Cc1cccc2cc3ccc4ccccc4c3cc12`, the GI50 in the test on SK-OV-3 is > 100 µM (inactive); in the test with HOP-62, 68.4 µM (inactive); in the test with LOX IMVI it was 39.4 µM (inactive); with TK-10, 36.6 µM (inactive); in the test with SF-268, > 100 µM (inactive); in the test with BT-549, > 100 µM (inactive). Moreover, the GI50 in the test on K562 was 63.1 µM (inactive); in the test on U-251, 41.4 µM (inactive); with HT-29 it was 30.7 µM (inactive); with MDA-MB-435 it was 47.6 µM (inactive); in the test with HCC 2998, 19.9 µM (inactive); in the test with HCT-15, 47 µM. Moreover, the GI50 was 8.28 µM (inactive) with MCF7; 56.5 µM (inactive) in the test with Malme-3M; 47.3 µM (inactive) in the test on OVCAR-4; 37.2 µM (inactive) in the test on KM12; 77.8 µM (inactive) in the test with UO-31; 75.2 µM (inactive) with RXF 393. Besides, the GI50 in the test on OVCAR-5 is 38.5 µM (inactive); in the test on ACHN, 46.7 µM (inactive).
In the case of `CC(C)NC(=O)OCc1c(COC(=O)NC(C)C)c(-c2cc[n+](COC(=O)C3CCCCC3)cc2)n2c1CCC2`, the GI50 was > 100 µM (inactive) with SK-OV-3; > 100 µM (inactive) with HOP-62; > 100 µM (inactive) with LOX IMVI; > 100 µM (inactive) with TK-10; 91.2 µM (inactive) in the test with SF-268; > 100 µM (inactive) in the test with BT-549. Besides, the GI50 in the test on K562 was > 100 µM (inactive); in the test with U-251, > 100 µM (inactive); in the test on HT-29, > 100 µM (inactive); in the test on MDA-MB-435, > 100 µM (inactive); in the test on HCC 2998, > 100 µM (inactive); in the test with HCT-15, greater than 100 µM. For the same compound, the GI50 in the test on MCF7 was 83.4 µM (inactive); in the test with Malme-3M, > 100 µM (inactive); in the test on OVCAR-4 it was > 100 µM (inactive); with KM12, > 100 µM (inactive); in the test with UO-31 it was > 100 µM (inactive); with RXF 393, > 100 µM (inactive). Moreover, the GI50 with OVCAR-5 is > 100 µM (inactive); in the test with ACHN it was 44.9 µM (inactive).
As for `COc1ccc(OCc2nc3cc(C(F)(F)F)ccc3nc2-c2ccccc2)cc1`, the GI50 in the test on SK-OV-3, in the test on HOP-62, in the test with LOX IMVI, in the test with TK-10, in the test with SF-268 and in the test on BT-549 was > 100 µM (inactive) throughout. Also, the GI50 was > 100 µM (inactive) in the test on K562; > 100 µM (inactive) in the test on U-251; > 100 µM (inactive) with HT-29; > 100 µM (inactive) with MDA-MB-435; > 100 µM (inactive) in the test with HCC 2998; greater than 100 µM in the test with HCT-15. Also, the GI50 in the test on MCF7, in the test with Malme-3M, in the test on OVCAR-4, with KM12, with UO-31 and with RXF 393 was > 100 µM (inactive) in each case. The GI50 in the test on OVCAR-5 and with ACHN was > 100 µM (inactive) throughout.
As to `Cc1ccc(S(=O)(=O)N2CCCCN(S(=O)(=O)c3ccc(C)cc3)Cc3ccccc3OCCOCCOc3c4cccc3Cc3cccc5c3OCCOCCOc3ccccc3CN(S(=O)(=O)c3ccc(C)cc3)CCCN(S(=O)(=O)c3ccc(C)cc3)Cc3ccccc3OCCOCCOc3c(cccc3C4)Cc3cccc(c3OCCOCCOc3ccccc3C2)C5)cc1`, the GI50 with SK-OV-3, with HOP-62, in the test with LOX IMVI, in the test on TK-10, with SF-268 and in the test with BT-549 was > 100 µM (inactive) each time. Further, the GI50 in the test with K562 was > 100 µM (inactive); in the test on U-251, > 100 µM (inactive); in the test with HT-29, > 100 µM (inactive); with MDA-MB-435 it was > 100 µM (inactive); in the test with HCC 2998, > 100 µM (inactive); in the test on HCT-15, greater than 100 µM. Also, the GI50 in the test on MCF7, in the test with Malme-3M, with OVCAR-4, in the test on KM12, in the test on UO-31 and in the test with RXF 393 was > 100 µM (inactive) in each case. In addition, the GI50 in the test on OVCAR-5 and with ACHN was > 100 µM (inactive) each time.
